These results are taken from US20190202836A1, “SELECTIVE DUAL INHIBITORS OF PI3 DELTA AND GAMMA PROTEIN KINASES” (Rhizen Pharmaceuticals SA, priority 2014, published 2019).

One may read the AUC(0-t) as the area under the concentration-time curve up to a stated or last time point. By Cmax is commonly meant the peak of the concentration-time curve. A word on the Tmax: it is the time at which the peak concentration occurs. The term half-life denotes the time needed for the level to fall by half in the phase considered. Read a low half-life as fast loss. The inhibition is the percentage by which the read-out fell short of the control. The low end stands for little suppression, the high end for strong suppression.

Data set [1] in a line: Metabolic stability in human liver microsomes. The data set is classed as in vitro ADME. The conditions noted are these: 1 μM test item, 60 minutes, 37° C., NADPH. As for the experimental part:
Metabolic stability studies were conducted on Compounds A, A1, and A2 as well as Example 128 of WO 2012/151525 using mouse, rat, dog, monkey, and human liver microsomes. The protocol for the studies with mouse, rat, and human liver microsomes (all from BD Gentest, USA) is provided below. 0.4 mg protein was preincubated with 2 mM NADPH (cofactor) in phosphate buffer (pH-7.4) for 15 minutes at 37° C. and then added with 1 μM test item and incubated further for 60 minutes in triplicate. The reaction mixture was terminated with methanol containing an internal standard and centrifuged further to analyze the test item remaining in the supernatant by LC-MS/MS. The percent parent compound remaining was calculated in comparison with similar samples terminated at 0 minutes.

Data set [2] can be described thus: Oral pharmacokinetics in mice. The data set is classed as in vivo. The following applies: mouse, plasma, 10 mg/kg.
The target of the next data set is PI3Kδ (Homo sapiens, UniProt O00329). In words: Assay 1: Fluorescent (HTRF) determination of PI3 kinase enzyme activity, PI3Kδ. The data set is classed as biochemical. An excerpt:
(§1) Phosphoinositide 3 kinases (PI3K) belong to a class of lipid kinases that play a critical role in the regulation of several key cellular processes. The PI3K are capable of phosphorylating the 3-hydroxy position of phosphoinositols thereby generating second messengers involved in downstream signaling events. The homogenous time resolved fluorescence (HTRF) assay allows detection of 3,4,5-triphosphate (PIPS) formed as a result of phosphorylation of phosphotidylinositol 4,5-biphosphate (PIP2) by PI3K isoforms such as α, β, γ or δ.
(§2) PI3K isoform activity for α, β, γ or δ was determined using a PI3K human HTRF™ Assay Kit (Millipore, Billerica, Mass.) with modifications. All incubations were carried out at room temperature. 0.5 μl of 40× inhibitor (in 100% DMSO) or 100% DMSO were added to each well of a 384-well white plate (Greiner Bio-One, Monroe, N.C.) containing 14.5 μl 1× reaction buffer/PIP2 (10 mM MgCl2, 5 mM DTT, 1.38 μM PIP2) mix with or without enzyme, followed by 5 μl/well of 400 μM ATP and incubated for an additional 30 minutes. The reaction was terminated by adding 5 μl/well stop solution (Millipore, Billerica, Mass.). 5 μl of detection mix (Millipore, Billerica, Mass.) was then added to each well and incubated for 6-18 hours in the dark. HRTF ratio was measured on a microplate reader (BMG Labtech., Germany) at an excitation wavelength of 337 nm and emission wavelengths of 665 and 615 nm with an integration time of 400 msec counting delay of 50 msec.
(TR-FRET usually uses a lanthanide donor and a delayed reading to cut background.)

For the next data set, the target named is PI3Kα (Homo sapiens, UniProt P42336). In words: Assay 1: Fluorescent (HTRF) determination of PI3 kinase enzyme activity, PI3Kα. The data set is classed as biochemical.
From the text: as §1, §2

A further data set has as its target PI3Kγ (Homo sapiens, UniProt P48736). Nature of the data set: Assay 1: Fluorescent (HTRF) determination of PI3 kinase enzyme activity, PI3Kγ. It counts as biochemical. The conditions noted are these: read-out: IC50 (nM) PI3Kγ.
From the text: as §1, §2

The target in a further data set is T1, PI3K delta (Homo sapiens, UniProt O00329).
T1 construct: endogenous in cells; host or cells: isolated human B-cells
Nature of the data set: Assay 4A1: Anti-IgM induced B-cell proliferation. It counts as cell-based. The following applies: isolated human B-cells, 72 hours; read-out: Cellular IC50 PI3K delta (anti-IgM induced human B-cell proliferation). The method, then:
The objective of this study was to assess the inhibitory potential of Compound A1 on anti-IgM induced human B-cell proliferation.
Isolated B-cells were re-suspended to 1.0×10^6 cells per ml. 100 μl of cell suspension was added to each well of a 96-well plate. Triplicates were maintained.
50 μl of drug dilution was added and mixed well. A DMSO blank and inducer blank were maintained.
The treated plate was incubated for 30 minutes at 37° C., 5% CO2 and then 50 μl of 4× inducer was added and mixed by pipetting.
The plate was incubated at 37° C., 5% CO2 for 72 hours.
Media was aspirated and 150 μl of DMSO was added to dissolve the formazan crystals.
Absorbance was read at A560 and A640 nm.

The target in a further data set is T2, PI3K gamma (Mus musculus, UniProt Q9JHG7).
T2 construct: endogenous in cells; host or cells: RAW 264.7 macrophages
In words: Assay 4A3: c5a induced AktS473 phosphorylation in RAW 264.7 macrophages. The data set is classed as cell-based. The conditions noted are these: c5a 50 ng/ml, read-out: Cellular IC50 PI3K gamma (c5a induced pAKT in RAW macrophages). As for the experimental part: The objective of this study was to determine the effect of Compound A1 on PI3Kγ kinase mediated c5a induced AktS473 phosphorylation in RAW 264.7 macrophages.
RAW 264.7 cells were treated with desired concentrations of the test compound for 15 minutes. 1 ml of 2× c5a was added such that the final concentration was 50 ng/ml and incubated for 15 minutes.
Media was discarded and washed with 1 ml of ice-cold 1× PBS.
250 μl of cell lysis buffer was added and incubated on ice for 30 minutes.
Samples were centrifuged and supernatant was stored at −80° C. until analysis
Samples were analyzed by Western Blotting using pAKT (S473) as the primary and anti-rabbit IgG-HRP as a secondary antibody.
Intensity of the bands was determined using ImageJ 1.42q (NIH, USA) and normalized to Actin (loading control). Data was plotted using GraphPad Prism (Version 5.02).

Data set [3] relates to mouse whole blood B-cell proliferation (CD45R). Nature of the data set: Assay 6B: Inhibition of LPS induced CD45R in mouse whole blood. The data set is classed as cell-based. The following applies: diluted mouse whole blood, 72 hours, read-out: EC50, inhibition of LPS-induced mouse whole blood B-cell proliferation (CD45R expression). As for the experimental part: The effect of Compound A1 on modulating B-cell receptor (BCR)-activated proliferation of human or mouse B-lymphocytes was determined. CD19 is a protein present on B cells from the earliest recognizable B-lineage cells during development to B-cell blasts but is however lost on maturation to plasma cells. LPS is an endotoxin and a major component of environmental microbes with a potent mitogenic activity on B-cells via the […].
Briefly, diluted mouse whole blood was treated with of DMSO or desired concentrations of Compound A1. Samples were induced with LPS 15 minutes after compound addition, and incubated for 72 hours at 37° C. and 5% CO2. Cells positive for CD45 and CD45R were determined by flow cytometry. Data are expressed as percentage CD45R positive cells in the total population.

PI3Kα, sequence (P42336 whole entry): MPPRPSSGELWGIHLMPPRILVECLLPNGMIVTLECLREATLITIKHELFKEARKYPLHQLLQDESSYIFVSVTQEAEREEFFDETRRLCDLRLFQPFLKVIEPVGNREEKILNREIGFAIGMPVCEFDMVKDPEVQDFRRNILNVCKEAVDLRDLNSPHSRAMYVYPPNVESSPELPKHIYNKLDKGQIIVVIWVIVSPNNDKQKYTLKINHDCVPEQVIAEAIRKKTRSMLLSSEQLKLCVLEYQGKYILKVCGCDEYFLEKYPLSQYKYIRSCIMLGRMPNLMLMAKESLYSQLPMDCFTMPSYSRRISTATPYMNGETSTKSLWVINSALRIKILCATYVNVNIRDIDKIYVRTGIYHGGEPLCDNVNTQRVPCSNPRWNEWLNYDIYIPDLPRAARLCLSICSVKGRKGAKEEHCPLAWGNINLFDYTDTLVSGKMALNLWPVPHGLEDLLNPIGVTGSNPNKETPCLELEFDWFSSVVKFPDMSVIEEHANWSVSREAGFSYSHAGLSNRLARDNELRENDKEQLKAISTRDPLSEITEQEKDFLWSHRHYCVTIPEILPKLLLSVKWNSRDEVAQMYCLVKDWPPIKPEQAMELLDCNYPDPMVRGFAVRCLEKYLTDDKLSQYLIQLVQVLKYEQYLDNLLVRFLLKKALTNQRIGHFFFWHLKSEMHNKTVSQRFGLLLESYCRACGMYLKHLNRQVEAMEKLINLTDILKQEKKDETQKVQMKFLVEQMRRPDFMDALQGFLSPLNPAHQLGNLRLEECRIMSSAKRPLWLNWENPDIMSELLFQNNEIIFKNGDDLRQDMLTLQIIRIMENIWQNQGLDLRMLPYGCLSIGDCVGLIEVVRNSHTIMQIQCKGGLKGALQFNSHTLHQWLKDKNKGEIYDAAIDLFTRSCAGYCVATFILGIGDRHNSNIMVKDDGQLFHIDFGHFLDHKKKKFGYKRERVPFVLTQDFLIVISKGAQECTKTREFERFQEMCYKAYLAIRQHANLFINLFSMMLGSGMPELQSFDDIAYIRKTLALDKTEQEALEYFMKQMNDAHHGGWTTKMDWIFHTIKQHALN
PI3Kα, sequence (P27986 whole entry partner): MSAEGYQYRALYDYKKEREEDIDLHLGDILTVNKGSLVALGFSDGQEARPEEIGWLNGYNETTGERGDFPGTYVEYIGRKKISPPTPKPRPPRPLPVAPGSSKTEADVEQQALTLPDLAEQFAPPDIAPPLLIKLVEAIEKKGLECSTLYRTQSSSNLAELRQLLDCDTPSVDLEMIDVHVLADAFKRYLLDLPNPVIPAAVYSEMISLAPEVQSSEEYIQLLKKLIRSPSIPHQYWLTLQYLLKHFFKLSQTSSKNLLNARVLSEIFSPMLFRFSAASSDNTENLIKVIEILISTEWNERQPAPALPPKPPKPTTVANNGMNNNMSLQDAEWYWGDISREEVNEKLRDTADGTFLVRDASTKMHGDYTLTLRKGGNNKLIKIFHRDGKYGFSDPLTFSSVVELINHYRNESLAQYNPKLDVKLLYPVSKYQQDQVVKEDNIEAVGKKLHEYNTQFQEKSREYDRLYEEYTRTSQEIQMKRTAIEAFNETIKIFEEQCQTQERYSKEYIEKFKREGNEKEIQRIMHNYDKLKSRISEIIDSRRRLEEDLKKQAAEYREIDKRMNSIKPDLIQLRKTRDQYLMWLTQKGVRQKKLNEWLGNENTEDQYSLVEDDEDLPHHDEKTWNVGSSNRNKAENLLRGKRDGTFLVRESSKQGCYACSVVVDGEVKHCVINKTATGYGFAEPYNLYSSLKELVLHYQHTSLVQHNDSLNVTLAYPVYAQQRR
PI3Kγ, sequence (P48736 whole entry): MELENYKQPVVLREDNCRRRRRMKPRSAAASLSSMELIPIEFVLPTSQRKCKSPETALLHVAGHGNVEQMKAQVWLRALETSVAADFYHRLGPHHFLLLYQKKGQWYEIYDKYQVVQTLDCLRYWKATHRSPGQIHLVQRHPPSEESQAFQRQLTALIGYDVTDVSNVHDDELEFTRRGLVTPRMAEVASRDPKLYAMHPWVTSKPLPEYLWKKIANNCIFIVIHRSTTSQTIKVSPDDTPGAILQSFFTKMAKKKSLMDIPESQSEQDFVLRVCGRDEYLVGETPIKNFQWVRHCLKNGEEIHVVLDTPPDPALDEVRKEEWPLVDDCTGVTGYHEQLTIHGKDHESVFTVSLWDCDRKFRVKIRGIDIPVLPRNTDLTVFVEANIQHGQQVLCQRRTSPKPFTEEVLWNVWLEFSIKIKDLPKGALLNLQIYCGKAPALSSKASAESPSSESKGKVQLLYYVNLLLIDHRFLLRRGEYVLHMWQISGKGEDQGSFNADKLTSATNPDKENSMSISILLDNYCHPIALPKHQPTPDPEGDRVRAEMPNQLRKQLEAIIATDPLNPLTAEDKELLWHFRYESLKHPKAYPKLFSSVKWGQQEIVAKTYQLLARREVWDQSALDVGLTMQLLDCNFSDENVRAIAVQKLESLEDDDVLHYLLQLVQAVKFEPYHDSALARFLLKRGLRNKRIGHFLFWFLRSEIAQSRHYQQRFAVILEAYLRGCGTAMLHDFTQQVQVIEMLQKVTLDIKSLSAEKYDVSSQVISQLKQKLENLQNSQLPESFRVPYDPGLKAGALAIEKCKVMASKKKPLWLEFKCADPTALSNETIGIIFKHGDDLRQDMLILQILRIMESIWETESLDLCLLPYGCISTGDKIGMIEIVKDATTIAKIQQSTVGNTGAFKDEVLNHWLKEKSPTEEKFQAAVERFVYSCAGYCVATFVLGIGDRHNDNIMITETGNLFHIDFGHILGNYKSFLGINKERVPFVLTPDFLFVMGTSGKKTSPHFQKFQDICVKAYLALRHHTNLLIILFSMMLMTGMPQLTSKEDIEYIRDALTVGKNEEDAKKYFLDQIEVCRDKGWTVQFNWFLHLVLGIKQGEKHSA
T1 sequence (O00329 whole entry): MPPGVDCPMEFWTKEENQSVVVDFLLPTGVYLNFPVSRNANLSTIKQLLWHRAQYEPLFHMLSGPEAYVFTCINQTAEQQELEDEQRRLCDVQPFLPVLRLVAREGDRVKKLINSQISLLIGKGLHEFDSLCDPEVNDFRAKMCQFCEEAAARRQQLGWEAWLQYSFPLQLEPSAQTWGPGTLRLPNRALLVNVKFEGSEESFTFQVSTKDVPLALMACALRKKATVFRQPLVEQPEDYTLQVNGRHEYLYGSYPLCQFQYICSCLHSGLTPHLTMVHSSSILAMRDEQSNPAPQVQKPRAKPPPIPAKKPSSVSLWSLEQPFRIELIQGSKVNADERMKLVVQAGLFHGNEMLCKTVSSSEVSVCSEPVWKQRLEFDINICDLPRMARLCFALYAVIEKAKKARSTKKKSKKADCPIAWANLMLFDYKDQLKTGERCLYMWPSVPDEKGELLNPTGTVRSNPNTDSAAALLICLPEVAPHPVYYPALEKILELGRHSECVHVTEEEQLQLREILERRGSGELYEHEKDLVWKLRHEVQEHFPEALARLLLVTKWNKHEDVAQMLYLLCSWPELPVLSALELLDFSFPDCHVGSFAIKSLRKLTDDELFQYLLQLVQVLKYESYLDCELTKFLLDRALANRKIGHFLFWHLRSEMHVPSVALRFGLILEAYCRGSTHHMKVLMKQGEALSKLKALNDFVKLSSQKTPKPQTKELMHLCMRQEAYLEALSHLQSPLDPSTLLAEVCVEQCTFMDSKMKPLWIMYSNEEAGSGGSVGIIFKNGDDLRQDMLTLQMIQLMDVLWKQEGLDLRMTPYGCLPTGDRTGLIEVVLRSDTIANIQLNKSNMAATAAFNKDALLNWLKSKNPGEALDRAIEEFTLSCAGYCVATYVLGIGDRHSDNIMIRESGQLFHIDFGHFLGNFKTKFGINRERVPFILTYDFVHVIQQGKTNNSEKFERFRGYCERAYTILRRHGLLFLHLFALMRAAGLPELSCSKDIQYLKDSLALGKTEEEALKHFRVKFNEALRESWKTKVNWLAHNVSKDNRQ
T1 sequence (P27986 whole entry partner): as the sequence (P27986 whole entry partner) above
PI3Kδ, sequence (O00329 whole entry, canonical isoform): as the sequence (O00329 whole entry) above
PI3Kδ, sequence (P27986 whole entry partner, canonical isoform): as the sequence (P27986 whole entry partner) above

As for `COc1ccc(-c2nn([C@@H](C)c3oc4cccc(F)c4c(=O)c3-c3cccc(F)c3)c3ncnc(N)c23)cc1NS(C)(=O)=O` [Compound A1, (S)—N-(5-(4-amino-1-(1-(5-fluoro-3-(3-fluorophenyl)-4-oxo-4H-chromen-2-yl)ethyl)-1H-pyrazolo[3,4-d]pyrimidin-3-yl)-2-methoxyphenyl)methanesulfonamide], in data set [1], the “Metabolic stability in liver microsomes (percent parent compound remaining), Human” value amounted to 95.7%. In data set [2], this compound displayed an AUC(0-t) of 7.49 µM·h. In data set [2], this compound yielded a Cmax of 3.78 µM. Also, the Tmax in data set [2] was found to be 30 min. For the same compound, the half-life in data set [2] is 87 min. In addition, the IC50 on PI3Kδ was 30.5 nM; against PI3Kα (HTRF enzyme assay), > 10000 nM; at PI3Kγ, 48.7 nM; at PI3K delta, 11 nM; at PI3K gamma it was 51.7 nM. The same compound displayed an inhibition at 10 µM against PI3Kα of 23%. On PI3Kα (selectivity profile, enzyme IC50), the “Fold-Selectivity PI3Kα” value is >329 fold. Moreover, in data set [3], the EC50 was 128 nM.
